Assay results published in ChEMBL document CHEMBL6127052, “Discovery of membrane-targeting amphiphilic honokiol derivatives containing an oxazolethione moiety to combat methicillin-resistant Staphylococcus aureus (MRSA) infections” (Eur J Med Chem, 2024).

Key:
Escherichia coli = assay: Antibacterial activity against Escherichia coli ATCC 25922 by CLSI based micro-broth dilution method; format: functional
Staphylococcus aureus [1] = assay: Antibacterial activity against methicillin-resistant Staphylococcus aureus clinical isolate M22 by CLSI based micro-broth dilution method; format: functional
Staphylococcus aureus [2] = assay: Antibacterial activity against methicillin-resistant Staphylococcus aureus clinical isolate M21 by CLSI based micro-broth dilution method; format: functional
Staphylococcus aureus [3] = assay: Antibacterial activity against methicillin-resistant Staphylococcus aureus clinical isolate M20 by CLSI based micro-broth dilution method; format: functional
Staphylococcus aureus [4] = assay: Antibacterial activity against methicillin-resistant Staphylococcus aureus N315 by CLSI based micro-broth dilution method; format: functional
Staphylococcus aureus [5] = assay: Antibacterial activity against methicillin-resistant Staphylococcus aureus clinical isolate M13 by CLSI based micro-broth dilution method; format: functional
Staphylococcus aureus [6] = assay: Antibacterial activity against methicillin-resistant Staphylococcus aureus clinical isolate M12 by CLSI based micro-broth dilution method; format: functional
[7] = Hemolytic activity in sheep erythrocytes incubated for 1 hr by absorbance based assay; format: toxicity, cell-based, Ovis aries, Erythrocyte
Staphylococcus aureus [8] = assay: Antibacterial activity against Staphylococcus aureus ATCC 29213 by CLSI based micro-broth dilution method; format: functional
Staphylococcus aureus [9] = assay: Antibacterial activity against methicillin-resistant Staphylococcus aureus clinical isolate M14 by CLSI based micro-broth dilution method; format: functional
[10] = Selectivity index, ratio of HC50 for hemolytic activity in sheep erythrocytes to MIC for antibacterial activity against Staphylococcus aureus ATCC 29213; format: toxicity, cell-based, RBC
Staphylococcus aureus [11] = assay: Antibacterial activity against methicillin-resistant Staphylococcus aureus clinical isolate M11 by CLSI based micro-broth dilution method; format: functional
Staphylococcus aureus [12] = assay: Antibacterial activity against methicillin-resistant Staphylococcus aureus clinical isolate M23 by CLSI based micro-broth dilution method; format: functional
Staphylococcus aureus [13] = assay: Antibacterial activity against methicillin-resistant Staphylococcus aureus clinical isolate M16 by CLSI based micro-broth dilution method; format: functional
Staphylococcus aureus [14] = assay: Antibacterial activity against methicillin-resistant Staphylococcus aureus clinical isolate M17 by CLSI based micro-broth dilution method; format: functional

C=CCc1cc(-c2ccc(OCCC[N+](C)(C)CC(=O)NCCCC)c(CC=C)c2)c2oc(=S)n(Cc3ccc(F)cc3Cl)c2c1.[Br-]
MIC (Escherichia coli): > 128 µg/mL
MIC (Staphylococcus aureus [1]): 64 µg/mL
MIC (Staphylococcus aureus [2]): 16 µg/mL
MIC (Staphylococcus aureus [3]): 16 µg/mL
MIC (Staphylococcus aureus [4]): 32 µg/mL
MIC (Staphylococcus aureus [5]): 64 µg/mL
MIC (Staphylococcus aureus [6]): 32 µg/mL
HC50 at 1 h [7]: > 160 µg/mL
MIC (Staphylococcus aureus [8]): 32 µg/mL
MIC (Staphylococcus aureus [9]): 16 µg/mL
selectivity ratio [10]: > 5
MIC (Staphylococcus aureus [11]): 16 µg/mL
MIC (Staphylococcus aureus [12]): 32 µg/mL
MIC (Staphylococcus aureus [13]): 16 µg/mL
MIC (Staphylococcus aureus [14]): 64 µg/mL

C=CCc1cc(-c2ccc(OCCC[N+](C)(C)CC(=O)NCCCC)c(CC=C)c2)c2oc(=S)n(Cc3cc(Br)cc(Br)c3)c2c1.[Br-]
MIC (Escherichia coli): > 128 µg/mL
MIC (Staphylococcus aureus [1]): 64 µg/mL
MIC (Staphylococcus aureus [2]): 32 µg/mL
MIC (Staphylococcus aureus [3]): 32 µg/mL
MIC (Staphylococcus aureus [4]): 64 µg/mL
MIC (Staphylococcus aureus [5]): 128 µg/mL
MIC (Staphylococcus aureus [6]): 64 µg/mL
HC50 at 1 h [7]: > 160 µg/mL
MIC (Staphylococcus aureus [8]): > 128 µg/mL
MIC (Staphylococcus aureus [9]): 128 µg/mL
selectivity ratio [10]: 1.3
MIC (Staphylococcus aureus [11]): 32 µg/mL
MIC (Staphylococcus aureus [12]): 64 µg/mL
MIC (Staphylococcus aureus [13]): 64 µg/mL
MIC (Staphylococcus aureus [14]): 64 µg/mL

C=CCc1cc(-c2ccc(OCCC[N+](C)(C)CC(=O)NCCCC)c(CC=C)c2)c2oc(=S)n(Cc3ccc(F)c(F)c3)c2c1.[Br-]
MIC (Escherichia coli): > 128 µg/mL
MIC (Staphylococcus aureus [1]): 4 µg/mL
MIC (Staphylococcus aureus [2]): 4 µg/mL
MIC (Staphylococcus aureus [3]): 4 µg/mL
MIC (Staphylococcus aureus [4]): 16 µg/mL
MIC (Staphylococcus aureus [5]): 2 µg/mL
MIC (Staphylococcus aureus [6]): 4 µg/mL
HC50 at 1 h [7]: 68.4 µg/mL
MIC (Staphylococcus aureus [8]): 4 µg/mL
MIC (Staphylococcus aureus [9]): 2 µg/mL
selectivity ratio [10]: 10.4
MIC (Staphylococcus aureus [11]): 4 µg/mL
MIC (Staphylococcus aureus [12]): 4 µg/mL
MIC (Staphylococcus aureus [13]): 4 µg/mL
MIC (Staphylococcus aureus [14]): 4 µg/mL

C=CCc1cc(-c2ccc(OCCC[N+](C)(C)CC(=O)NCCCC)c(CC=C)c2)c2oc(=S)n(Cc3ccc(C(F)(F)F)cc3)c2c1.[Br-]
MIC (Escherichia coli): > 128 µg/mL
MIC (Staphylococcus aureus [1]): 16 µg/mL
MIC (Staphylococcus aureus [2]): 8 µg/mL
MIC (Staphylococcus aureus [3]): 4 µg/mL
MIC (Staphylococcus aureus [4]): 16 µg/mL
MIC (Staphylococcus aureus [5]): 4 µg/mL
MIC (Staphylococcus aureus [6]): 4 µg/mL
HC50 at 1 h [7]: > 160 µg/mL
MIC (Staphylococcus aureus [8]): 8 µg/mL
MIC (Staphylococcus aureus [9]): 8 µg/mL
selectivity ratio [10]: > 20
MIC (Staphylococcus aureus [11]): 4 µg/mL
MIC (Staphylococcus aureus [12]): 8 µg/mL
MIC (Staphylococcus aureus [13]): 8 µg/mL
MIC (Staphylococcus aureus [14]): 16 µg/mL

C=CCc1cc(-c2ccc(OCCC[N+](C)(C)CC(=O)NCCCC)c(CC=C)c2)c2oc(=S)n(Cc3ccc(Br)cc3Br)c2c1.[Br-]
MIC (Escherichia coli): > 128 µg/mL
MIC (Staphylococcus aureus [1]): > 128 µg/mL
MIC (Staphylococcus aureus [2]): > 128 µg/mL
MIC (Staphylococcus aureus [3]): > 128 µg/mL
MIC (Staphylococcus aureus [4]): 128 µg/mL
MIC (Staphylococcus aureus [5]): > 128 µg/mL
MIC (Staphylococcus aureus [6]): > 128 µg/mL
HC50 at 1 h [7]: 65.4 µg/mL
MIC (Staphylococcus aureus [8]): > 128 µg/mL
MIC (Staphylococcus aureus [9]): > 128 µg/mL
selectivity ratio [10]: 0.5
MIC (Staphylococcus aureus [11]): > 128 µg/mL
MIC (Staphylococcus aureus [12]): > 128 µg/mL
MIC (Staphylococcus aureus [13]): > 128 µg/mL
MIC (Staphylococcus aureus [14]): > 128 µg/mL

C=CCc1cc(-c2ccc(OCCC[N+](C)(C)CC(=O)NCCCC)c(CC=C)c2)c2oc(=S)n(Cc3ccc(Cl)c(F)c3)c2c1.[Br-]
MIC (Escherichia coli): > 128 µg/mL
MIC (Staphylococcus aureus [1]): 64 µg/mL
MIC (Staphylococcus aureus [2]): 8 µg/mL
MIC (Staphylococcus aureus [3]): 8 µg/mL
MIC (Staphylococcus aureus [4]): 32 µg/mL
MIC (Staphylococcus aureus [5]): 16 µg/mL
MIC (Staphylococcus aureus [6]): 8 µg/mL
HC50 at 1 h [7]: > 160 µg/mL
MIC (Staphylococcus aureus [8]): 32 µg/mL
MIC (Staphylococcus aureus [9]): 16 µg/mL
selectivity ratio [10]: > 5
MIC (Staphylococcus aureus [11]): 8 µg/mL
MIC (Staphylococcus aureus [12]): 8 µg/mL
MIC (Staphylococcus aureus [13]): 8 µg/mL
MIC (Staphylococcus aureus [14]): 128 µg/mL

C=CCc1cc(-c2ccc(OCCC[N+](C)(C)CC(=O)NCCCC)c(CC=C)c2)c2oc(=S)n(Cc3ccc(Cl)c(Cl)c3)c2c1.[Br-]
MIC (Escherichia coli): > 128 µg/mL
MIC (Staphylococcus aureus [1]): 64 µg/mL
MIC (Staphylococcus aureus [2]): 16 µg/mL
MIC (Staphylococcus aureus [3]): 32 µg/mL
MIC (Staphylococcus aureus [4]): 32 µg/mL
MIC (Staphylococcus aureus [5]): 64 µg/mL
MIC (Staphylococcus aureus [6]): 32 µg/mL
HC50 at 1 h [7]: > 160 µg/mL
MIC (Staphylococcus aureus [8]): 64 µg/mL
MIC (Staphylococcus aureus [9]): 32 µg/mL
selectivity ratio [10]: > 2.5
MIC (Staphylococcus aureus [11]): 32 µg/mL
MIC (Staphylococcus aureus [12]): 32 µg/mL
MIC (Staphylococcus aureus [13]): 32 µg/mL
MIC (Staphylococcus aureus [14]): 128 µg/mL

C=CCc1cc(-c2ccc(OCCC[N+](C)(C)CC(=O)NCCCC)c(CC=C)c2)c2oc(=S)n(Cc3ccc(F)c(Br)c3)c2c1.[Br-]
MIC (Escherichia coli): > 128 µg/mL
MIC (Staphylococcus aureus [1]): 32 µg/mL
MIC (Staphylococcus aureus [2]): 4 µg/mL
MIC (Staphylococcus aureus [3]): 4 µg/mL
MIC (Staphylococcus aureus [4]): 16 µg/mL
MIC (Staphylococcus aureus [5]): 8 µg/mL
MIC (Staphylococcus aureus [6]): 4 µg/mL
HC50 at 1 h [7]: 42.1 µg/mL
MIC (Staphylococcus aureus [8]): 16 µg/mL
MIC (Staphylococcus aureus [9]): 8 µg/mL
selectivity ratio [10]: 2.6
MIC (Staphylococcus aureus [11]): 8 µg/mL
MIC (Staphylococcus aureus [12]): 8 µg/mL
MIC (Staphylococcus aureus [13]): 8 µg/mL
MIC (Staphylococcus aureus [14]): 16 µg/mL

C=CCc1cc(-c2ccc(OCCC[N+](C)(C)CC(=O)NCCCC)c(CC=C)c2)c2oc(=S)n(Cc3ccccc3F)c2c1.[Br-]
MIC (Escherichia coli): > 128 µg/mL
MIC (Staphylococcus aureus [1]): 32 µg/mL
MIC (Staphylococcus aureus [2]): 4 µg/mL
MIC (Staphylococcus aureus [3]): 8 µg/mL
MIC (Staphylococcus aureus [4]): 8 µg/mL
MIC (Staphylococcus aureus [5]): 8 µg/mL
MIC (Staphylococcus aureus [6]): 4 µg/mL
HC50 at 1 h [7]: > 160 µg/mL
MIC (Staphylococcus aureus [8]): 8 µg/mL
MIC (Staphylococcus aureus [9]): 8 µg/mL
selectivity ratio [10]: > 20
MIC (Staphylococcus aureus [11]): 4 µg/mL
MIC (Staphylococcus aureus [12]): 8 µg/mL
MIC (Staphylococcus aureus [13]): 8 µg/mL
MIC (Staphylococcus aureus [14]): 8 µg/mL

C=CCc1cc(-c2ccc(OCCC[N+](C)(C)CC(=O)NCCCC)c(CC=C)c2)c2oc(=S)n(Cc3cccc(Cl)c3Cl)c2c1.[Br-]
MIC (Escherichia coli): > 128 µg/mL
MIC (Staphylococcus aureus [1]): 64 µg/mL
MIC (Staphylococcus aureus [2]): 8 µg/mL
MIC (Staphylococcus aureus [3]): 8 µg/mL
MIC (Staphylococcus aureus [4]): 64 µg/mL
MIC (Staphylococcus aureus [5]): 64 µg/mL
MIC (Staphylococcus aureus [6]): 8 µg/mL
HC50 at 1 h [7]: 22 µg/mL
MIC (Staphylococcus aureus [8]): 32 µg/mL
MIC (Staphylococcus aureus [9]): 32 µg/mL
selectivity ratio [10]: 0.7
MIC (Staphylococcus aureus [11]): 16 µg/mL
MIC (Staphylococcus aureus [12]): 64 µg/mL
MIC (Staphylococcus aureus [13]): 64 µg/mL
MIC (Staphylococcus aureus [14]): 64 µg/mL

C=CCc1cc(-c2ccc(OCCC[N+](C)(C)CC(=O)NCCCC)c(CC=C)c2)c2oc(=S)n(Cc3cc(Cl)cc(Cl)c3)c2c1.[Br-]
MIC (Escherichia coli): > 128 µg/mL
MIC (Staphylococcus aureus [1]): 32 µg/mL
MIC (Staphylococcus aureus [2]): 16 µg/mL
MIC (Staphylococcus aureus [3]): 16 µg/mL
MIC (Staphylococcus aureus [4]): 64 µg/mL
MIC (Staphylococcus aureus [5]): 32 µg/mL
MIC (Staphylococcus aureus [6]): 8 µg/mL
HC50 at 1 h [7]: 31.3 µg/mL
MIC (Staphylococcus aureus [8]): 64 µg/mL
MIC (Staphylococcus aureus [9]): 32 µg/mL
selectivity ratio [10]: 0.5
MIC (Staphylococcus aureus [11]): 32 µg/mL
MIC (Staphylococcus aureus [12]): 32 µg/mL
MIC (Staphylococcus aureus [13]): 32 µg/mL
MIC (Staphylococcus aureus [14]): 32 µg/mL

C=CCc1cc(-c2ccc(OCCC[N+](C)(C)CC(=O)NCCCC)c(CC=C)c2)c2oc(=S)n(Cc3cc(Br)ccc3F)c2c1.[Br-]
MIC (Escherichia coli): > 128 µg/mL
MIC (Staphylococcus aureus [1]): 16 µg/mL
MIC (Staphylococcus aureus [2]): 8 µg/mL
MIC (Staphylococcus aureus [3]): 8 µg/mL
MIC (Staphylococcus aureus [4]): 16 µg/mL
MIC (Staphylococcus aureus [5]): 16 µg/mL
MIC (Staphylococcus aureus [6]): 8 µg/mL
HC50 at 1 h [7]: > 160 µg/mL
MIC (Staphylococcus aureus [8]): 16 µg/mL
MIC (Staphylococcus aureus [9]): 8 µg/mL
selectivity ratio [10]: > 10
MIC (Staphylococcus aureus [11]): 8 µg/mL
MIC (Staphylococcus aureus [12]): 16 µg/mL
MIC (Staphylococcus aureus [13]): 8 µg/mL
MIC (Staphylococcus aureus [14]): 32 µg/mL

C=CCc1cc(-c2ccc(OCCC[N+](C)(C)CC(=O)NCCCC)c(CC=C)c2)c2oc(=S)n(Cc3ccc(Br)cc3)c2c1.[Br-]
MIC (Escherichia coli): > 128 µg/mL
MIC (Staphylococcus aureus [1]): 32 µg/mL
MIC (Staphylococcus aureus [2]): 16 µg/mL
MIC (Staphylococcus aureus [3]): 16 µg/mL
MIC (Staphylococcus aureus [4]): 32 µg/mL
MIC (Staphylococcus aureus [5]): 16 µg/mL
MIC (Staphylococcus aureus [6]): 16 µg/mL
HC50 at 1 h [7]: 489 µg/mL
MIC (Staphylococcus aureus [8]): 32 µg/mL
MIC (Staphylococcus aureus [9]): 16 µg/mL
selectivity ratio [10]: 15.3
MIC (Staphylococcus aureus [11]): 16 µg/mL
MIC (Staphylococcus aureus [12]): 16 µg/mL
MIC (Staphylococcus aureus [13]): 16 µg/mL
MIC (Staphylococcus aureus [14]): 16 µg/mL
